{
  "source": "patent US11306095B2",
  "about": "(EAST CHINA UNIVERSITY OF SCIENCE AND TECHNOLOGY, priority 2015, dated 2022)",
  "key": {"[1]": {"tested_on": "A431 cell xenograft (EGFR wild-type)", "test": "A431 cell xenograft tumor assay", "type": "in vivo, BALB/c nude mice", "details": "25 mg/kg, oral, 14 days", "description": "Purpose of experiment: A431 xenograft tumor BALB/c nude mice were orally administered (PO) with a substance to be tested for 14 consecutive days. The body weight and tumor size of nude mice were observed and recorded.\nCells were fluid-changed and passaged for one time every 2-3 days and expanded. When the desired amount of cells was achieved, transplantation of cells was performed.\n(§1) 40 male BALB/c nude mice, aged 4-5 weeks and weighing 17-23 g, were purchased from Shanghai Bikai, placed in an animal room environment for 2-3 days, and then seeded with cells. Cell suspension was subcutaneously injected at forelimb of the nude mouse rich in capillaries, and each mouse was injected with 0.1 mL of cell suspension.\n(§2) Appropriate amount of a substance to be tested was weighed, suspended in 14 mL of DMSO-PEG400 saline solution (DMSO:PEG400:saline=1:30:69) respectively, formulated according to the following table, suspended or dissolved by ultrasonic wave, filled into vials and sealed and reserved in a 4° C. refrigerator for further use.\n(§3) The length and width of a tumor and body weight of a mouse were recorded at least twice a week. The tumor size is calculated as V=0.5*length*width*width."}, "H1975 cell xenograft": {"tested_on": "H1975 cell xenograft", "test": "H1975 cell xenograft tumor assay", "type": "in vivo, BALB/c nude mice", "description": "Purpose of experiment: H1975 transplanted BALB/c nude mice were orally administered (PO) with a substance to be tested for 14 consecutive days. The body weight and tumor size of nude mice were observed and recorded.\nH1975 cells were obtained from Shanghai Institute of Materia Medica. […] Cells were fluid-changed and passaged for one time every 2-3 days and expanded. When the desired amount of cells was achieved, transplantation of cells was performed.\nas §1\nas §2, with “sealed,” for “sealed”\nas §3"}, "[2]": {"test": "Determination of solubility in water (PBS 20 mM, pH 6.8)", "type": "physicochemical", "details": "PBS buffer, aqueous buffer, thermodynamic from solid; pH 6.8, 20 mM PBS; read-out: Solubility (pH 6.8, g/mL)", "outline": "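Compound suspension filtered (0.22 μm PVDF), diluted in 50% methanol/50% PBS, absorbance read by UV spectrophotometry. Solubility calculated from a standard curve of 0.01–0.05 mg/mL methanol-derived solutions (r > 0.998).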"}, "[3]": {"tested_on": "H1975 cells (EGFR L858R/T790M)", "test": "Inhibitory activity on cell proliferation, H1975", "type": "cell-based", "details": "Homo sapiens, NCI-H1975; H1975, 72 hours; read-out: Inhibitory activity on proliferation of cells (IC50, μM) H1975"}, "[4]": {"test": "Pathological analysis of tumor-bearing mice after 14 consecutive days of administration", "type": "in vivo"}, "[5]": {"tested_on": "A431 cells (EGFR wild type)", "test": "Inhibitory activity on cell proliferation, A431", "type": "cell-based", "details": "Homo sapiens, A-431; A431, 72 hours; read-out: Inhibitory activity on proliferation of cells (IC50, μM) A431"}, "EGFR-L858R/T790M": {"target": "T1, EGFR-L858R/T790M (Homo sapiens, UniProt P00533, L858R/T790M)", "T1 construct": "purchased Invitrogen PV4879", "T1 sequence (P00533 25-1210 T790M/L858R)": "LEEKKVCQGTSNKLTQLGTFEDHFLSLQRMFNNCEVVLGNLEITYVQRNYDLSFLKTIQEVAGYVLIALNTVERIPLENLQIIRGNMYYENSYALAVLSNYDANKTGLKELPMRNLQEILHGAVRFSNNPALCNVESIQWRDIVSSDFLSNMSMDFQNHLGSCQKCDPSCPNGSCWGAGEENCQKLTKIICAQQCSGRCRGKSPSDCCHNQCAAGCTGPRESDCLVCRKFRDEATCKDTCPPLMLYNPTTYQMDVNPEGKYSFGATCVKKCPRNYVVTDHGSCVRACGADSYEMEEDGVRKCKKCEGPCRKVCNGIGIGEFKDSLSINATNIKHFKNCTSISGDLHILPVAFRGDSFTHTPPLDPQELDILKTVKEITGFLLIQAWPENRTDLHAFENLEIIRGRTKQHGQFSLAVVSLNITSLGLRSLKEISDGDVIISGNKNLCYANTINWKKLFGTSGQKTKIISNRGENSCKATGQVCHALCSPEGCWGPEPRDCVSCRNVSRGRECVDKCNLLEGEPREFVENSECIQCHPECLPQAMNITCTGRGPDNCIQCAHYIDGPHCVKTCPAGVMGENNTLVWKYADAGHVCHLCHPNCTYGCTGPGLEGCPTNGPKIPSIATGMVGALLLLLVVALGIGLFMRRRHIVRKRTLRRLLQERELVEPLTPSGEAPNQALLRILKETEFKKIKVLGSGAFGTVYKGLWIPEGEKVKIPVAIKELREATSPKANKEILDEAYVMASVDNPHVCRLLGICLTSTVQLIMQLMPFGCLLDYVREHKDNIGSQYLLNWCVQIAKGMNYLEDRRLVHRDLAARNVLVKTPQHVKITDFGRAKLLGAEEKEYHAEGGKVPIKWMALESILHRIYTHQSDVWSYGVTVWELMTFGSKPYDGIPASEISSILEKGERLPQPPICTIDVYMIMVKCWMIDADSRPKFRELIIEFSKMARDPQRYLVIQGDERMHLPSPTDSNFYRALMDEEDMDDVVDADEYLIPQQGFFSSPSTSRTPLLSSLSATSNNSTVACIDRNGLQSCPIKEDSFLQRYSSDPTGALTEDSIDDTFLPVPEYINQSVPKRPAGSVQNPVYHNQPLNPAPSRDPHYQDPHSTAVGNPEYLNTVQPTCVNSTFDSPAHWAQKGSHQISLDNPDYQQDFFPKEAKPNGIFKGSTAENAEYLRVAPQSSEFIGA", "test": "Kinase activity test (FRET), EGFR T790M/L858R", "type": "biochemical", "details": "EGFR T790M/L858R; read-out: Inhibitory activity of EGFR on kinase (IC50, nM) T790M/L858R", "outline": "(§4)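 FRET assay with coumarin/fluorescein-labelled poly(Glu, Tyr)4:1 peptide and ATP, compounds at 5.1×10^−11 to 1.0×10^−6 mol/L final. Kinase reaction 1.5 h at room temperature, then 1 h development cleaving unphosphorylated peptide.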"}, "Wild type EGFR": {"target": "T2, Wild type EGFR (Homo sapiens, UniProt P00533)", "T2 construct": "purchased Invitrogen PV3872", "T2 sequence (P00533 25-1210)": "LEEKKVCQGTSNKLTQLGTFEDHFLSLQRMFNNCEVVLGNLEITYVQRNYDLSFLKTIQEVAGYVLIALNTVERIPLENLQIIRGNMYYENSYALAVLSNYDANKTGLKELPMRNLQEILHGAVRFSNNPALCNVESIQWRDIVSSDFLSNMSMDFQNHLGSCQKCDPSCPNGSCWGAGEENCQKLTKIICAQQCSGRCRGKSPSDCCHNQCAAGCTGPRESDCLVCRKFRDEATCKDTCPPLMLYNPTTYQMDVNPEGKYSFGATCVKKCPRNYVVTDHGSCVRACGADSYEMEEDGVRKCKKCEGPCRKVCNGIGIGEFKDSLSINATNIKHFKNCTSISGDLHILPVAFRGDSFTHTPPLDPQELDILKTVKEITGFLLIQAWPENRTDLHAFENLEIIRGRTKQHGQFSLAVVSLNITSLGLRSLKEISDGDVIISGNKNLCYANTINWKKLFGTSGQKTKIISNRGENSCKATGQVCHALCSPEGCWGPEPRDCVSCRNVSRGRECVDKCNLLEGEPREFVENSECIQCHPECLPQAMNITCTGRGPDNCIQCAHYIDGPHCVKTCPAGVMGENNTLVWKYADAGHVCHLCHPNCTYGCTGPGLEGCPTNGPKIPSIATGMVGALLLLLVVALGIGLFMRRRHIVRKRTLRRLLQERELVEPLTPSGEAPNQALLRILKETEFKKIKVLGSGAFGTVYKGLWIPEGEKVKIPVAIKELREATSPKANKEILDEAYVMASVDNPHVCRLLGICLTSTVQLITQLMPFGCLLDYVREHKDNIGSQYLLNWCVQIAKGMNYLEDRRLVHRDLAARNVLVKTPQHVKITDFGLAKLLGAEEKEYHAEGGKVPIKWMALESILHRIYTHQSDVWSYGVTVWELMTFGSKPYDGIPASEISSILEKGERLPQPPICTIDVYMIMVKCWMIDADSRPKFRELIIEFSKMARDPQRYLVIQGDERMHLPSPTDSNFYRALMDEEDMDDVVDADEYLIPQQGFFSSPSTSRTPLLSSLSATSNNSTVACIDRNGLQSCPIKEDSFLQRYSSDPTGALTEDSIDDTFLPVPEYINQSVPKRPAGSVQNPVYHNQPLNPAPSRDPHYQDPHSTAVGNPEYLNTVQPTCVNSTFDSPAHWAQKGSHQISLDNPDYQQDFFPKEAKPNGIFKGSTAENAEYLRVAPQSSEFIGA", "test": "Kinase activity test (FRET), wild type EGFR", "type": "biochemical", "details": "wild type EGFR; read-out: Inhibitory activity of EGFR on kinase (IC50, nM) WT", "outline": "as §4"}},
  "data": [
    {"smiles": "C=CC(=O)Nc1cccc(-n2c(=O)c(-c3ccccc3)nc3cnc(Nc4ccc(N5CCN(C)CC5)cc4OC)nc32)c1", "note": "[Compound 14, N-(3-(2-((2-methoxy-4-(4-methyl-1-piperazinyl)phenyl)amino)-7-oxo-6-phenyl-8(7H)-pteridinyl)phenyl)acrylamide]", "values": [
      {"measurement": "tumor size in EGFR wild-type A431 cell xenograft model (FIG. 3)", "setting": "[1]", "value": "the size of the tumor did not substantially change"},
      {"measurement": "selectivity on wild-type EGFR in A431 xenograft (FIG. 3)", "setting": "[1]; versus afatinib", "value": "significantly better than afatinib"},
      {"measurement": "effect on tumor size in H1975 xenograft (FIG. 2)", "setting": "H1975 cell xenograft; 25 mg/kg", "value": "effectively reduce the size of a tumor"},
      {"measurement": "efficacy in H1975 xenograft (FIG. 2), 25 mg/kg versus AZD9291 25 mg/kg", "setting": "H1975 cell xenograft; 25 mg/kg", "value": "comparable efficacy to AZD9291"},
      {"measurement": "tumor recurrence after administration was stopped for 1 month (FIG. 2)", "setting": "H1975 cell xenograft; 25 mg/kg, H1975 xenograft", "value": "the tumor did not recur"},
      {"measurement": "efficacy in H1975 xenograft (FIG. 2), 10 mg/kg versus CO-1686 50 mg/kg", "setting": "H1975 cell xenograft; Compound 14 10 mg/kg, CO-1686 50 mg/kg", "value": "better efficacy over CO-1686"},
      {"measurement": "efficacy in H1975 cell xenograft model (FIG. 1)", "setting": "H1975 cell xenograft; orally administered for 14 days, versus CO-1686", "value": "superior efficacy over CO-1686"},
      {"measurement": "solubility", "setting": "[2]", "value": 9.7, "unit": "µg/mL"},
      {"measurement": "IC50", "setting": "[3]", "value": 0.014, "unit": "µM"},
      {"measurement": "pathology, brain tissue (FIG. 5E)", "setting": "[4]", "value": "normal tissue structure, no pathological change"},
      {"measurement": "pathology, heart tissue (FIG. 5G)", "setting": "[4]", "value": "moderate expansion of myocardial fiber gap in the tissue"},
      {"measurement": "pathology, intestine tissue (FIG. 5A)", "setting": "[4]", "value": "mucosal inflammatory cell focal infiltration"},
      {"measurement": "pathology, kidney tissue (FIG. 5F)", "setting": "[4]", "value": "1) a part of glomerular wall in the tissue thickening, as shown by the black arrow, and 2) no significant abnormality"},
      {"measurement": "pathology, liver tissue (FIG. 5C)", "setting": "[4]", "value": "1) the extensive hepatic sinusoids dilatation in the entire tissue, as indicated by the black arrow, and 2) visible mild fatty degeneration in liver tissue, with small droplets of lipid"},
      {"measurement": "pathology, lung tissue (FIG. 5B)", "setting": "[4]", "value": "normal tissue structure, no pathological change"},
      {"measurement": "pathology, tumor tissue (FIG. 5D)", "setting": "[4]", "value": "moderate necrosis of cells in the entire tissues"},
      {"measurement": "IC50", "setting": "[5]", "value": 4.18, "unit": "µM"},
      {"measurement": "IC50", "setting": "EGFR-L858R/T790M", "value": 1, "unit": "nM"},
      {"measurement": "IC50", "setting": "Wild type EGFR", "value": 10.5, "unit": "nM"}
    ]}
  ]
}
